Data reported in PMC10907494, “Applications of biaryl cyclization in the synthesis of cyclic enkephalin analogs with a highly restricted flexibility” (Amino Acids, 2024).
Marks after values point to notes of the source that are not given here.

Molecular target: μ-opioid receptor (MOR) (Rattus norvegicus, UniProt P33535)
Experiment: biochemical
Conditions: for Radioligand SB at 30 μM of ligand (% of radioligand specific binding): mean and standard deviation; for % of radioligand specific binding at 3 μM, mean / % of radioligand specific binding at 10 μM, mean / % of radioligand specific binding at 30 μM, mean: initial screening; for MOR binding, times weaker than that of the linear counterpart: ratio of IC50 values, cyclic analog vs its linear counterpart
Experimental: The binding affinity of cyclic and linear enkephalin analogs for μ-opioid receptor (MOR) was determined in competitive radioligand binding assays using membrane preparations from rat brain homogenates. The homogenates were obtained as described previously (Matalińska et al. [2020]). The membrane preparations were incubated at 25 °C for 60 min in the presence of 1.0 nM [^3H]DAMGO (obtained from PerkinElmer, USA) and the set of concentrations of the assayed compound proper for a particular compound and type of determination (screening or a full-displacement curve).
For screening purposes, we performed the experiments with the following concentrations of the compounds tested: 30 μM, 10 μM, and 3 μM. For full-displacement curves, 10 concentrations ranging either from 0.03 nM to 1 μM or from 300 nM to 30 μM were used. The range was chosen for the single compounds in a manner such that the expected IC50 would fall in the middle of the range. In the case of several experiments, only five concentrations were used (they are marked in the results table).
Non-specific binding was measured in the presence of 10 μM naloxone. The assays were conducted with the assay buffer made of 50 mM Tris–HCl (pH 7.4), bacitracin (100 μg/ml), bestatin (30 μM), and captopril (10 μM), phenylmethylsulfonyl fluoride (PMSF, 30 μg/ml) in a total volume of 0.5 ml. After the incubation, a rapid filtration with a M-24 Cell Harvester (Brandel/USA) through GF/B Whatman glass fiber strips was conducted. The filters were soaked with 0.5% PEI just before the harvesting so as to minimize the extent of non-specific binding. Filter disks were cut from the sheet and placed separately in 24-well plates. The Optiphase Supermix scintillation solution (Perkin Elmer, USA) was added to each well. Radioactivity was measured in a scintillation counter MicroBeta LS, Trilux (PerkinElmer, USA). Displacement curves were drawn and the mean IC50 values were determined with SEMs (GraphPad Prism v. 5.0, San Diego, CA).

[1] = IC50 ± S.E.M., full-displacement curves, 1.0 nM [3H]DAMGO, rat brain membranes, 25 °C, 60 min, mean of 2 or 3 experiments unless footnoted
[2] = IC50 (estimation based on the screening results), estimated from screening at 30 μM, 10 μM and 3 μM, [3H]DAMGO, rat brain membranes
[3] = estimated IC50, estimated from initial screening at 30, 10 and 3 μM

Sequence of μ-opioid receptor (MOR) (P33535 whole entry): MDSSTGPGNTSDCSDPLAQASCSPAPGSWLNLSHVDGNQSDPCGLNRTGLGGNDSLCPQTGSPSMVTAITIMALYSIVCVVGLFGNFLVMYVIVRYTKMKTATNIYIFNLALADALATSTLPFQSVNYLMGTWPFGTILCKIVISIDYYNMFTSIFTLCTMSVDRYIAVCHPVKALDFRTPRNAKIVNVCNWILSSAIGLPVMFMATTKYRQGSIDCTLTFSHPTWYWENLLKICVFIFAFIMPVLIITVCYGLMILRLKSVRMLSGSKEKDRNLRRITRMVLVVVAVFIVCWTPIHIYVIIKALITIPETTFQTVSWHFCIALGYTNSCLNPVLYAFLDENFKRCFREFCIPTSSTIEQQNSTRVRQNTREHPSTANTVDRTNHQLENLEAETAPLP

| Compound | Radioligand SB at 30 μM of ligand (% of radioligand specific binding) ([3H]DAMGO) | % of radioligand specific binding at 3 μM, mean | % of radioligand specific binding at 10 μM, mean | % of radioligand specific binding at 30 μM, mean | IC50 [1] | MOR binding reduced, times, compared to the parent [Leu^5]enk-NH2 (ratio of IC50 values vs [Leu^5]enk-NH2) | IC50 [2] | MOR binding, times weaker than that of the linear counterpart | IC50 [3] |
| --- | --- | --- | --- | --- | --- | --- | --- | --- | --- |
| H-Phe-Gly-Gly-Tyr-Leu-NH2 (H-FGGYL-NH2) [[Phe^1,Tyr^4,Leu^5]enk-NH2, reference compound] | 43 ± 11% | 85% | 61% | 43% | – | – | – | – | – |
| H-YGGYL-NH2 [[Tyr^4,Leu^5]enk-NH2, H-Tyr-Gly-Gly-Tyr-Leu-NH2, reference compound] | – | – | – | – | 0.222 ± 0.0159 µM | about 40 times | – | – | – |
| CC(C)C[C@H](NC(=O)[C@@H]1Cc2ccc(cc2)-c2ccc(cc2)C[C@H](N)C(=O)NCC(=O)NCC(=O)N1)C(N)=O [c-(Phe-p-Phe-p)-L-NH2, H-(cyclo-p,p)-[Phe-Gly-Gly-Phe]-Leu-NH2] | 73 ± 19% | 110% | 78% | 73% | – | – | > 30 µM | – | – |
| CC(C)C[C@H](NC(=O)[C@@H]1Cc2ccc(O)c(c2)-c2ccc(cc2)C[C@H](N)C(=O)NCC(=O)NCC(=O)N1)C(N)=O [c-(Phe-p-Tyr-m)-L-NH2, H-(cyclo-p,m)-[Phe-Gly-Gly-Tyr]-Leu-NH2] | 17 ± 3% | 62^c) % | 34^c) % | 17^c) % | 6.67 ± 0.262 µM | – | – | – | – |
| CC(C)C[C@H](NC(=O)[C@@H]1Cc2ccc(O)c(c2)-c2cc(ccc2O)C[C@H](N)C(=O)NCC(=O)NCC(=O)N1)C(N)=O [c-(Tyr-m-Tyr-m)-L-NH2, H-(cyclo-m,m)-[Tyr-Gly-Gly-Tyr]-Leu-NH2] | 117 ± 1% | 87% | 102% | 117% | – | – | > 30 µM | – | – |
| CC(C)C[C@H](NC(=O)[C@@H]1Cc2cccc(c2)-c2cc(ccc2O)C[C@H](N)C(=O)NCC(=O)NCC(=O)N1)C(N)=O [c-(Tyr-m-Phe-m)-L-NH2, H-(cyclo-m,m)-[Tyr-Gly-Gly-Phe]-Leu-NH2] | 12 ± 3% | 64% | 28% | 12% | 3.08 µM | – | – | ~500 times | – |
| CC(C)C[C@H](NC(=O)[C@@H]1Cc2ccc(cc2)-c2cc(ccc2O)C[C@H](N)C(=O)NCC(=O)NCC(=O)N1)C(N)=O [c-(Tyr-m-Phe-p)-L-NH2, H-(cyclo-m,p)-[Tyr-Gly-Gly-Phe]-Leu-NH2] | 77 ± 4% | 99% | 78% | 77% | – | – | > 30 µM | – | – |
| H-(cyclo-m,p)-[Tyr-Gly-Gly-Phe]-Leu-OH [c-(Tyr-m-Phe-p)-L-OH] | 36 ± 6% | 88% | 60% | 36% | – | – | – | – | – |
| CSCC[C@H](NC(=O)[C@@H]1Cc2ccc(cc2)-c2cc(ccc2O)C[C@H](N)C(=O)NCC(=O)NCC(=O)N1)C(N)=O [c-(Tyr-m-Phe-p)-M-NH2, H-(cyclo-m,p)-[Tyr-Gly-Gly-Phe]-Met-NH2] | 12 ± 4% | 49% | 34% | 12% | 1.37 ± 0.266 µM | – | – | ~500 times | ~1 µM |
| H-FGGFL-NH2 [[Phe^1,Leu^5]enk-NH2, H-Phe-Gly-Gly-Phe-Leu-NH2, reference compound] | 5 ± 1% | 26^c) % | 13^c) % | 5^c) % | 0.596 ± 0.0488 µM | – | – | – | < 3 µM |
